Source: PubChem BioAssay AID2060626 (Molecular Pharmacology Branch, DTP, NCI, 2025)
Values joined by “and” are separate entries in the source; they are usually repeats but may differ in a detail not shown here. Equal values may be shown once.

Tested on: 168753-222-R-J1-PDC complex spheroid viability
Assay: Anticancer human tumor 168753-222-R-J1-PDC patient-derived bladder carcinoma cell line growth inhibition [CLK]
Details: for viability, T/C: stronger effect = lower value; for IC50: curve of first compound
Outline: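 Patient-derived tumor cells grown as complex spheroids with HUVEC endothelial cells and mesenchymal stem cells, treated with drug combinations. Concentrations descend in half-log steps from near clinical Cmax, or from 10 microM if Cmax unknown.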

[1] = second compound 0.0316 µM, first compound 0.0316 µM
[2] = second compound 0.0316 µM, first compound 0.1 µM
[3] = second compound 0.0316 µM, first compound 0.316 µM
[4] = second compound 0.0316 µM, first compound 1 µM
[5] = second compound 0.0316 µM, first compound 3.16 µM
[6] = second compound 0.0316 µM, first compound 10 µM
[7] = second compound 0.1 µM, first compound 0.0316 µM
[8] = second compound 0.1 µM, first compound 0.1 µM
[9] = second compound 0.1 µM, first compound 0.316 µM
[10] = second compound 0.1 µM, first compound 1 µM
[11] = second compound 0.1 µM, first compound 3.16 µM
[12] = second compound 0.1 µM, first compound 10 µM
[13] = second compound 0.316 µM, first compound 0.0316 µM
[14] = second compound 0.316 µM, first compound 0.1 µM
[15] = second compound 0.316 µM, first compound 0.316 µM
[16] = second compound 0.316 µM, first compound 1 µM
[17] = second compound 0.316 µM, first compound 3.16 µM
[18] = second compound 0.316 µM, first compound 10 µM
[19] = second compound 1 µM, first compound 0.0316 µM
[20] = second compound 1 µM, first compound 0.1 µM
[21] = second compound 1 µM, first compound 0.316 µM
[22] = second compound 1 µM, first compound 1 µM
[23] = second compound 1 µM, first compound 3.16 µM
[24] = second compound 1 µM, first compound 10 µM
[25] = second compound 3.16 µM, first compound 0.0316 µM
[26] = second compound 3.16 µM, first compound 0.1 µM
[27] = second compound 3.16 µM, first compound 0.316 µM
[28] = second compound 3.16 µM, first compound 1 µM
[29] = second compound 3.16 µM, first compound 3.16 µM
[30] = second compound 3.16 µM, first compound 10 µM
[31] = second compound 10 µM, first compound 0.0316 µM
[32] = second compound 10 µM, first compound 0.1 µM
[33] = second compound 10 µM, first compound 0.316 µM
[34] = second compound 10 µM, first compound 1 µM
[35] = second compound 10 µM, first compound 3.16 µM
[36] = second compound 10 µM, first compound 10 µM
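Note: viability measured after seven days of drug exposure.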
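Throughout, for viability, T/C: luminescence signal used as surrogate for viable cell amount; 100% = DMSO vehicle control wells.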

**Q.** With `CCc1c2c(nc3ccc(O)cc13)-c1cc3c(c(=O)n1C2)COC(=O)[C@]3(O)CC` as the molecule, how does the viability, T/C (compound 0.00316 µM) read?
**A.** 86.5% and 95.1%

**Q.** And the viability, T/C (compound 0.01 µM)?
**A.** 49.5% and 86.4%

**Q.** And the viability, T/C (compound 0.0316 µM)?
**A.** 31.5% and 79.7%

**Q.** What about the viability, T/C (compound 0.1 µM) of the same molecule?
**A.** 32.8% and 59.9%

**Q.** What about the viability, T/C (compound 0.316 µM) of the same molecule?
**A.** 15.3% and 52.8%

**Q.** What about the viability, T/C (compound 1 µM) of the same molecule?
**A.** 12% and 15.8%

**Q.** For `CC(=O)O[C@H]1C(=O)[C@@]2(C)[C@H]([C@H](OC(=O)c3ccccc3)[C@]3(O)C[C@H](OC(=O)[C@H](O)[C@@H](NC(=O)c4ccccc4)c4ccccc4)C(C)=C1C3(C)C)[C@]1(OC(C)=O)CO[C@@H]1C[C@@H]2O` + CNC(=O)c1ccc(Nc2nc(OC3CCCC3)c3c(-c4ccc5nc(C)oc5c4)c[nH]c3n2)c(OC)c1, which IC50 (second compound 0.0316 µM) is on record?
**A.** 130 nM

**Q.** What about the IC50 (second compound 0.1 µM) of the same molecule?
**A.** > 10000 nM

**Q.** What about the IC50 (second compound 0.316 µM) of the same molecule?
**A.** > 10000 nM

**Q.** What about the IC50 (second compound 1 µM) of the same molecule?
**A.** < 31.6 nM

**Q.** And the IC50 (second compound 3.16 µM)?
**A.** < 31.6 nM

**Q.** What about the IC50 (second compound 10 µM) of the same molecule?
**A.** < 31.6 nM

**Q.** And the viability, T/C [1]?
**A.** 74.5%

**Q.** What about the viability, T/C [2] of the same molecule?
**A.** 39.9%

**Q.** What about the viability, T/C [3] of the same molecule?
**A.** 30.9%

**Q.** And the viability, T/C [4]?
**A.** 33.1%

**Q.** What about the viability, T/C [5] of the same molecule?
**A.** 53.4%

**Q.** And the viability, T/C [6]?
**A.** 53.2%

**Q.** And the viability, T/C [7]?
**A.** 80.8%

**Q.** And the viability, T/C [8]?
**A.** 64.2%

**Q.** What about the viability, T/C [9] of the same molecule?
**A.** 64.6%

**Q.** What about the viability, T/C [10] of the same molecule?
**A.** 67.7%

**Q.** And the viability, T/C [11]?
**A.** 86.6%

**Q.** And the viability, T/C [12]?
**A.** 88.2%

**Q.** And the viability, T/C [13]?
**A.** 79.1%

**Q.** What about the viability, T/C [14] of the same molecule?
**A.** 80.5%

**Q.** What about the viability, T/C [15] of the same molecule?
**A.** 77.5%

**Q.** What about the viability, T/C [16] of the same molecule?
**A.** 79.9%

**Q.** And the viability, T/C [17]?
**A.** 85%

**Q.** What about the viability, T/C [18] of the same molecule?
**A.** 93.9%

**Q.** And the viability, T/C [19]?
**A.** 52.3%

**Q.** And the viability, T/C [20]?
**A.** 34.7%

**Q.** What about the viability, T/C [21] of the same molecule?
**A.** 41.2%

**Q.** What about the viability, T/C [22] of the same molecule?
**A.** 29.4%

**Q.** What about the viability, T/C [23] of the same molecule?
**A.** 52.9%

**Q.** And the viability, T/C [24]?
**A.** 62.7%

**Q.** What about the viability, T/C [25] of the same molecule?
**A.** 20.9%

**Q.** And the viability, T/C [26]?
**A.** 22.2%

**Q.** And the viability, T/C [27]?
**A.** 26.7%

**Q.** And the viability, T/C [28]?
**A.** 31.1%

**Q.** And the viability, T/C [29]?
**A.** 29.9%

**Q.** What about the viability, T/C [30] of the same molecule?
**A.** 36.4%

**Q.** What about the viability, T/C [31] of the same molecule?
**A.** 20.9%

**Q.** What about the viability, T/C [32] of the same molecule?
**A.** 18.6%

**Q.** What about the viability, T/C [33] of the same molecule?
**A.** 23.8%

**Q.** And the viability, T/C [34]?
**A.** 29.1%

**Q.** What about the viability, T/C [35] of the same molecule?
**A.** 35.4%

**Q.** What about the viability, T/C [36] of the same molecule?
**A.** 31.4%

**Q.** How did the IC50 (second compound 0.0316 µM) turn out when `CC1(C)CCC(CN2CCN(c3ccc(C(=O)NS(=O)(=O)c4ccc(NCC5CCOCC5)c([N+](=O)[O-])c4)c(Oc4cnc5[nH]ccc5c4)c3)CC2)=C(c2ccc(Cl)cc2)C1` + CN1CCN(c2cc(C(=O)Nc3cc4cc(-c5cnn(C)c5)ccc4cn3)ccn2)CC1 was run?
**A.** 675 nM

**Q.** And the IC50 (second compound 0.1 µM)?
**A.** 154 nM

**Q.** And the IC50 (second compound 0.316 µM)?
**A.** < 31.6 nM

**Q.** What about the IC50 (second compound 1 µM) of the same molecule?
**A.** < 31.6 nM

**Q.** What about the IC50 (second compound 3.16 µM) of the same molecule?
**A.** < 31.6 nM

**Q.** And the IC50 (second compound 10 µM)?
**A.** < 31.6 nM

**Q.** And the viability, T/C [1]?
**A.** 74.8%

**Q.** What about the viability, T/C [2] of the same molecule?
**A.** 84.6%

**Q.** And the viability, T/C [3]?
**A.** 55.5%

**Q.** What about the viability, T/C [4] of the same molecule?
**A.** 41.3%

**Q.** And the viability, T/C [5]?
**A.** 31.6%

**Q.** What about the viability, T/C [6] of the same molecule?
**A.** 10.2%

**Q.** And the viability, T/C [7]?
**A.** 69.7%

**Q.** And the viability, T/C [8]?
**A.** 60.5%

**Q.** What about the viability, T/C [9] of the same molecule?
**A.** 28.1%

**Q.** And the viability, T/C [10]?
**A.** 35.8%

**Q.** And the viability, T/C [11]?
**A.** 33.7%

**Q.** What about the viability, T/C [12] of the same molecule?
**A.** 10.3%

**Q.** What about the viability, T/C [13] of the same molecule?
**A.** 10.3%

**Q.** What about the viability, T/C [14] of the same molecule?
**A.** 10.3%

**Q.** And the viability, T/C [15]?
**A.** 8.72%

**Q.** And the viability, T/C [16]?
**A.** 8.03%

**Q.** And the viability, T/C [17]?
**A.** 8.36%

**Q.** What about the viability, T/C [18] of the same molecule?
**A.** 7.08%

**Q.** What about the viability, T/C [19] of the same molecule?
**A.** 0.25%

**Q.** What about the viability, T/C [20] of the same molecule?
**A.** 0.31%

**Q.** What about the viability, T/C [21] of the same molecule?
**A.** 0.77%

**Q.** What about the viability, T/C [22] of the same molecule?
**A.** 0.22%

**Q.** And the viability, T/C [23]?
**A.** 0.16%

**Q.** And the viability, T/C [24]?
**A.** 1.27%

**Q.** And the viability, T/C [25]?
**A.** 0.41%

**Q.** And the viability, T/C [26]?
**A.** 0.29%

**Q.** What about the viability, T/C [27] of the same molecule?
**A.** 0.71%

**Q.** What about the viability, T/C [28] of the same molecule?
**A.** 0.15%

**Q.** What about the viability, T/C [29] of the same molecule?
**A.** 1.14%

**Q.** And the viability, T/C [30]?
**A.** 0.49%

**Q.** And the viability, T/C [31]?
**A.** 0.2%

**Q.** What about the viability, T/C [32] of the same molecule?
**A.** 0.75%

**Q.** And the viability, T/C [33]?
**A.** 0.51%

**Q.** What about the viability, T/C [34] of the same molecule?
**A.** 0.26%

**Q.** What about the viability, T/C [35] of the same molecule?
**A.** 0.35%

**Q.** And the viability, T/C [36]?
**A.** 1.21%
